# Test system: P12-Ichikawa
# Assay: cell viability relative to DMSO control; higher = less cytotoxic
# Conditions: 48 h
# Procedure, shortened: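 Library compounds in DMSO were pin-dosed in an 11-point threefold series (47 μM to 0.79 nM) onto leukemia cells in 1536-well plates (5 μl). Plates held 500 cells/well of NOMO1 or SEM or 1000 cells/well of P12-Ichikawa, each adapted for at least four passages in each medium. Luminescence was read with CellTiter-Glo One after 48 h at 37°C. Viability means the per-plate percentage relative to DMSO wells, using cell-free wells as background.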
# [1] = HPLM + 10% dialyzed FBS, 0.000781 µM
# [2] = HPLM + 10% dialyzed FBS, 0.00234 µM
# [3] = HPLM + 10% dialyzed FBS, 0.00702 µM
# [4] = HPLM + 10% dialyzed FBS, 0.0211 µM
# [5] = HPLM + 10% dialyzed FBS, 0.0632 µM
# [6] = HPLM + 10% dialyzed FBS, 0.19 µM
# [7] = HPLM + 10% dialyzed FBS, 0.569 µM
# [8] = HPLM + 10% dialyzed FBS, 1.71 µM
# [9] = HPLM + 10% dialyzed FBS, 5.12 µM
# [10] = HPLM + 10% dialyzed FBS, 15.4 µM
# [11] = HPLM + 10% dialyzed FBS, 46.1 µM
# [12] = RPMI 5 mM glucose + 10% dialyzed FBS, 0.000781 µM
# [13] = RPMI 5 mM glucose + 10% dialyzed FBS, 0.00234 µM
# [14] = RPMI 5 mM glucose + 10% dialyzed FBS, 0.00702 µM
# [15] = RPMI 5 mM glucose + 10% dialyzed FBS, 0.0211 µM
# [16] = RPMI 5 mM glucose + 10% dialyzed FBS, 0.0632 µM
# [17] = RPMI 5 mM glucose + 10% dialyzed FBS, 0.19 µM
# [18] = RPMI 5 mM glucose + 10% dialyzed FBS, 0.569 µM
# [19] = RPMI 5 mM glucose + 10% dialyzed FBS, 1.71 µM
# [20] = RPMI 5 mM glucose + 10% dialyzed FBS, 5.12 µM
# [21] = RPMI 5 mM glucose + 10% dialyzed FBS, 15.4 µM
# [22] = RPMI 5 mM glucose + 10% dialyzed FBS, 46.1 µM
# [23] = RPMI 5 mM glucose + 10% FBS, 0.000781 µM
# [24] = RPMI 5 mM glucose + 10% FBS, 0.00234 µM
# [25] = RPMI 5 mM glucose + 10% FBS, 0.00702 µM
# [26] = RPMI 5 mM glucose + 10% FBS, 0.0211 µM
# [27] = RPMI 5 mM glucose + 10% FBS, 0.0632 µM
# [28] = RPMI 5 mM glucose + 10% FBS, 0.19 µM
# [29] = RPMI 5 mM glucose + 10% FBS, 0.569 µM
# [30] = RPMI 5 mM glucose + 10% FBS, 1.71 µM
# [31] = RPMI 5 mM glucose + 10% FBS, 5.12 µM
# [32] = RPMI 5 mM glucose + 10% FBS, 15.4 µM
# [33] = RPMI 5 mM glucose + 10% FBS, 46.1 µM
SMILES,cell viability [1] [%],cell viability [2] [%],cell viability [3] [%],cell viability [4] [%],cell viability [5] [%],cell viability [6] [%],cell viability [7] [%],cell viability [8] [%],cell viability [9] [%],cell viability [10] [%],cell viability [11] [%],cell viability [12] [%],cell viability [13] [%],cell viability [14] [%],cell viability [15] [%],cell viability [16] [%],cell viability [17] [%],cell viability [18] [%],cell viability [19] [%],cell viability [20] [%],cell viability [21] [%],cell viability [22] [%],cell viability [23] [%],cell viability [24] [%],cell viability [25] [%],cell viability [26] [%],cell viability [27] [%],cell viability [28] [%],cell viability [29] [%],cell viability [30] [%],cell viability [31] [%],cell viability [32] [%],cell viability [33] [%]
CC(C[N+](C)(C)C)OC(N)=O (stereo unspecified),109,121,116,122,114,113,120,118,111,110,102,122,119,122,125,122,119,114,128,122,109,102,,,,,,,,,,,
CC(=O)OCC(=O)[C@@]12OC(C)(C)O[C@@H]1C[C@H]3[C@@H]4C[C@H](F)C/5=C/C(=O)/C=C\[C@]5(C)[C@@]4(F)[C@@H](O)C[C@]23C,107,119,111,117,110,94.7,76.7,74.5,71.6,74.5,72.4,117,107,114,107,87.8,84.4,62.8,57.6,55.1,54.7,56.9,106,128,119,115,115,84.2,68.5,70.8,62.1,64.2,67.5
O=[S+]([O-])(O)c1ccc2cc(/N=N/c3cc([S+](=O)([O-])O)c4cccnc4c3O)ccc2c1,123,123,125,110,126,120,124,111,108,113,58.8,135,125,114,110,114,122,117,114,113,101,56.4,131,124,121,109,126,112,115,111,113,113,59.2
CCCC1=N[N](C)C2=C1\N=C(/NC2=O)C3=CC(=CC=C3OCC)[S+]([O-])(=O)N4CCN(C)CC4,82.3,92.6,89.5,88.6,90.7,89.5,88.2,80.4,86.5,84,50.7,81.4,84.5,80.8,86.6,82.5,86.8,79.7,85.1,77.8,79.2,33.1,81.4,87.3,89.2,80.9,77.5,87.6,84.1,82.1,85.2,82.4,20.7
CNC(=O)c1ccc(N2C(=S)N(c3ccc(C#N)c(C(F)(F)F)c3)C(=O)C2(C)C)cc1F,98.8,106,79.6,110,123,117,115,124,114,108,107,102,113,80.4,108,120,117,119,122,122,112,91.1,107,119,72,109,123,117,122,120,124,116,98.5
C[C@]12CC[C@@H]3c4ccc(O)cc4CC[C@H]3[C@@H]1CC[C@@H]2O,116,111,113,106,112,116,105,102,100,88.9,27.1,108,111,109,101,103,102,102,94.3,94.1,75.5,28.6,118,112,115,115,105,111,112,108,107,105,20.9
O=[N+]([O-])c1ccc(Nc2ccccc2-c2ccccc2)c2nonc12,85.2,90.1,92.4,91.2,85.1,90.4,94.2,96.7,90.6,91,89.4,89.6,87.1,84.8,92.3,93.8,97.6,94.1,90.7,88.7,95.2,84.9,83.6,91.2,86.4,91.1,90.6,88,93.4,95.4,90.7,96.2,86.5
CN1CCN(Cc2ccc(NC(=O)Nc3ccc(Oc4cc(NC(=O)C5CC5)ncn4)cc3)cc2C(F)(F)F)CC1,100,108,103,113,114,113,46.7,9.49,10.2,8.59,0.0522,92.4,113,111,121,122,123,35.4,12.8,11.6,11.8,0.55,105,110,117,121,122,132,44.7,9.59,8.79,6.05,0.799
O=C(O)[C@@H](c1ccc(OCc2ccc3ccccc3n2)cc1)C1CCCC1,113,114,106,109,109,102,107,99.6,106,102,98.7,108,112,112,113,108,109,106,101,95.8,102,100,116,116,110,110,102,106,107,107,92.8,98,96.9
Cc1cccc(N(C)C(=S)Oc2ccc3ccccc3c2)c1,98.1,114,109,109,118,94.2,107,109,111,111,109,95.1,101,104,108,104,109,106,109,103,104,80.4,109,107,111,112,113,116,116,112,107,99.6,92.4
COc1cc(NC(=O)c2ccc(-c3ccc(Cl)cc3)o2)cc(OC)c1,93.8,111,110,112,115,109,111,111,101,99.2,104,84,107,114,113,112,107,115,104,101,94.3,104,97.4,105,100,115,108,115,108,117,101,99.5,95.5
CC(=O)Oc1cc2c(s1)CCN(C(C(=O)C1CC1)c1ccccc1F)C2.Cl (stereo unspecified),95,102,100,107,107,103,107,112,101,106,65.1,95.9,105,102,104,103,112,104,101,99.7,80.3,50.3,100,106,101,111,115,124,116,133,101,94.8,53.5
CCC[C@@H](C=O)NC(=O)[C@H](CC(C)C)NC(=O)[C@H](CC(C)C)NC(=O)OCc1ccccc1,107,108,120,120,117,118,132,118,12.1,6.77,5.18,104,115,120,124,124,130,133,133,14.7,7.12,5.01,105,116,113,118,122,121,121,104,7.61,6.3,4.83
C=CC(=O)Nc1cccc(Oc2nc(Nc3ccc(N4CCN(C)CC4)cc3OC)ncc2Cl)c1,75,79.3,78.4,84.9,84.7,86.3,83,79.6,76.5,70.6,52.2,73,89.4,82.8,79.9,81.6,80.9,74.6,83.3,70.6,64.7,49.5,68,76,76.1,79.5,80.9,83.7,80.1,82.1,66,58.3,50.3
